Source: patent publication US20230312578A1, “6H-INDOLO[2,3-B]QUINOXALINE DERIVATIVES USEFUL IN THERAPY” (Vironova Medical AB, priority 2020, published 2023)

Legend:
Assay type in all cases: cell-based
MCF7 = test: Human tumor cell line growth assay (SRB); details: Breast, MCF7, 48 h; for CC50: read-out: LC50 (the source's name)
U251 = test: Human tumor cell line growth assay (SRB); details: Homo sapiens, U-251; CNS, U251, 48 h
[1] = Human tumor cell line growth assay (SRB); details: human, M14 cells (melanoma), M14, 48 h, read-out: LC50
M14 = test: Human tumor cell line growth assay (SRB); details: Homo sapiens; Melanoma, M14, 48 h
HCT-116 = test: Human tumor cell line growth assay (SRB); details: Homo sapiens; Colon, HCT-116, 48 h
SN12C = test: Human tumor cell line growth assay (SRB); details: Renal, 48 h; for CC50: read-out: LC50 (the source's name)
SK-OV-3 = test: Human tumor cell line growth assay (SRB); details: Ovarian, SK-OV-3, 48 h; for CC50: read-out: LC50 (the source's name)
MDA-MB-231/ATCC = test: Human tumor cell line growth assay (SRB); details: Breast, 48 h; for CC50: read-out: LC50 (the source's name)
SK-MEL-2 = test: Human tumor cell line growth assay (SRB); details: Homo sapiens; Melanoma, SK-MEL-2, 48 h
A498 = test: Human tumor cell line growth assay (SRB); details: Renal, A498, 48 h; for CC50: read-out: LC50 (the source's name)
NCI-H460 = test: Human tumor cell line growth assay (SRB); details: Homo sapiens; NSCLC, NCI-H460, 48 h
MDA-MB-435 = test: Human tumor cell line growth assay (SRB); details: Homo sapiens; Melanoma, MDA-MB-435, 48 h
T-47D = test: Human tumor cell line growth assay (SRB); details: T47D, Breast, 48 h; for CC50: read-out: LC50 (the source's name)
UACC-257 = test: Human tumor cell line growth assay (SRB); details: Homo sapiens; Melanoma, UACC-257, 48 h
[2] = Human tumor cell line growth assay (SRB); details: human, SK-MEL-5 cells (melanoma), SK-MEL-5, 48 h
SK-MEL-5 = test: Human tumor cell line growth assay (SRB); details: Homo sapiens; Melanoma, SK-MEL-5, 48 h
DU-145 = test: Human tumor cell line growth assay (SRB); details: Prostate, DU-145, 48 h; for CC50: read-out: LC50 (the source's name)
[3] = Human tumor cell line growth assay (SRB); details: human, U251 cells (CNS), U251, 48 h, read-out: LC50
[4] = Human tumor cell line growth assay (SRB); details: human, HCT-116 cells (colon), HCT-116, 48 h, read-out: LC50
[5] = Human tumor cell line growth assay (SRB); details: human, SK-MEL-2 cells (melanoma), SK-MEL-2, 48 h, read-out: LC50
[6] = Human tumor cell line growth assay (SRB); details: human, NCI-H460 cells (NSCLC), NCI-H460, 48 h, read-out: LC50
[7] = Human tumor cell line growth assay (SRB); details: human, MDA-MB-435 cells (melanoma), MDA-MB-435, 48 h, read-out: LC50
[8] = Human tumor cell line growth assay (SRB); details: human, UACC-257 cells (melanoma), UACC-257, 48 h, read-out: LC50
[9] = Human tumor cell line growth assay (SRB); details: human, RPMI-8226 cells (leukemia), RPMI-8226, 48 h, read-out: LC50
[10] = Human tumor cell line growth assay (SRB), summary over the panel; details: human, human tumor cell line panel (most cell lines of the panel); for most cell lines of the panel; read-out: LC50

`Cc1cc2nc3c4cc(O)ccc4n(CCN(C)C)c3nc2cc1C` [JBD-139, 6-(2-(dimethylamino)ethyl)-2,3-dimethyl-6H-indolo [2,3-b]quinoxalin-9-ol] gave a GI50 (MCF7) of 351 nM, a CC50 (MCF7) of over 100000 nM and a GI50 (U251) of 356 nM. The CC50 at 48 h [1] was 5150 nM, the GI50 (M14) was 378 nM and the GI50 (HCT-116) was 326 nM. For the same molecule, the GI50 (SN12C) was 397 nM, the CC50 (SN12C) was over 100000 nM and the GI50 (SK-OV-3) was 1160 nM. The CC50 (SK-OV-3) was over 100000 nM, the GI50 (MDA-MB-231/ATCC) was 544 nM and the GI50 (SK-MEL-2) was 1100 nM. The GI50 (A498) was 948 nM, the CC50 (A498) was 5690 nM and the GI50 (NCI-H460) was 348 nM. The GI50 (MDA-MB-435) was 529 nM, the GI50 (T-47D) was 686 nM and the GI50 (UACC-257) was 597 nM. It also gave an LC50 (concentration killing 50% of tumour cells) at 48 h [2] of 5330 nM, a GI50 (SK-MEL-5) of 1450 nM and a GI50 (DU-145) of 598 nM. It also gave a CC50 (DU-145) of over 100000 nM.

`COc1ccc2c(c1)c1nc3cc(C)c(C)cc3nc1n2CCN(C)C` [JBA-094, 2-(9-methoxy-2,3-dimethyl-6H-indolo[2,3-b]quinoxalin-6-yl)-N,N-dimethylethanamine] gave a GI50 (MCF7) of 332 nM, a CC50 (MCF7) of 4790 nM and a GI50 (U251) of 526 nM. The CC50 at 48 h [3] was 6090 nM, the CC50 at 48 h [1] was 5890 nM and the GI50 (M14) was 1120 nM. For the same molecule, the GI50 (HCT-116) was 312 nM, the CC50 at 48 h [4] was 6590 nM and the GI50 (SN12C) was 503 nM. The CC50 (SN12C) was 5240 nM, the GI50 (SK-OV-3) was 1500 nM and the CC50 (SK-OV-3) was 7170 nM. For the same molecule, the GI50 (MDA-MB-231/ATCC) was 1140 nM, the CC50 (MDA-MB-231/ATCC) was 6390 nM and the CC50 at 48 h [5] was 7870 nM. The GI50 (SK-MEL-2) was 1710 nM, the GI50 (A498) was 1480 nM and the CC50 (A498) was 5560 nM. The CC50 at 48 h [6] was 4980 nM, the GI50 (NCI-H460) was 388 nM and the CC50 at 48 h [7] was 6030 nM. It also gave a GI50 (MDA-MB-435) of 1110 nM, a GI50 (T-47D) of 1320 nM and a CC50 (T-47D) of over 100000 nM. It also gave a CC50 at 48 h [8] of 7970 nM, a GI50 (UACC-257) of 1500 nM and an LC50 (concentration killing 50% of tumour cells) at 48 h [2] of 5580 nM. The GI50 (SK-MEL-5) was 1660 nM, the GI50 (DU-145) was 1010 nM and the CC50 (DU-145) was 5320 nM.

Work on `Cc1cc2nc3c4ccccc4n(CCN(C)C)c3nc2cc1C` [B220, 2-(2,3-dimethyl-6H-indolo [2,3-b]quinoxalin-6-yl)-N,N-dimethylethanamine, reference compound] yielded a GI50 (MCF7) of 1410 nM, a CC50 (MCF7) of 34800 nM and a GI50 (U251) of 2010 nM. It also gave a CC50 at 48 h [3] of 44600 nM, a CC50 at 48 h [1] of 75100 nM and a GI50 (M14) of 1510 nM. For the same molecule, the GI50 (HCT-116) was 488 nM, the CC50 at 48 h [4] was 44500 nM and the GI50 (SN12C) was 1080 nM. For the same molecule, the CC50 (SN12C) was over 100000 nM, the GI50 (SK-OV-3) was 3100 nM and the CC50 (SK-OV-3) was over 100000 nM. The GI50 (MDA-MB-231/ATCC) was 1760 nM, the CC50 (MDA-MB-231/ATCC) was 54900 nM and the CC50 at 48 h [5] was 7490 nM. The GI50 (SK-MEL-2) was 1900 nM, the GI50 (A498) was 1430 nM and the CC50 (A498) was 5740 nM. It also gave a CC50 at 48 h [6] of 37300 nM, a GI50 (NCI-H460) of 709 nM and a CC50 at 48 h [7] of 7490 nM. For the same molecule, the GI50 (MDA-MB-435) was 1610 nM, the GI50 (T-47D) was 2800 nM and the CC50 (T-47D) was over 100000 nM. The CC50 at 48 h [8] was 5990 nM, the GI50 (UACC-257) was 1940 nM and the LC50 (concentration killing 50% of tumour cells) at 48 h [2] was 12000 nM. The GI50 (SK-MEL-5) was 1700 nM, the GI50 (DU-145) was 2070 nM and the CC50 (DU-145) was 55600 nM.

`Cc1cc2nc3c4cc(N)ccc4n(CCN(C)C)c3nc2cc1C` [JBD-136, 6-(2-(dimethylamino)ethyl)-2,3-dimethyl-6H-indolo [2,3-b]quinoxalin-9-amine] showed a GI50 (MCF7) of 675 nM, a CC50 (MCF7) of 57500 nM and a GI50 (U251) of 640 nM. The CC50 at 48 h [3] was 54200 nM, the CC50 at 48 h [9] was 95200 nM and the CC50 at 48 h [1] was 6430 nM. It also gave a GI50 (M14) of 1120 nM, a GI50 (HCT-116) of 369 nM and a CC50 at 48 h [4] of 51400 nM. The GI50 (SN12C) was 553 nM, the CC50 (SN12C) was over 100000 nM and the GI50 (SK-OV-3) was 2230 nM. The CC50 (SK-OV-3) was over 100000 nM, the GI50 (MDA-MB-231/ATCC) was 1220 nM and the CC50 (MDA-MB-231/ATCC) was 57500 nM. The CC50 at 48 h [5] was 66700 nM, the GI50 (SK-MEL-2) was 1630 nM and the GI50 (A498) was 1070 nM. It also gave a CC50 (A498) of 5860 nM, a CC50 at 48 h [6] of 36600 nM and a GI50 (NCI-H460) of 434 nM. It also gave a CC50 at 48 h [7] of 5600 nM, a GI50 (MDA-MB-435) of 1050 nM and a GI50 (T-47D) of 2260 nM. For the same molecule, the CC50 (T-47D) was over 100000 nM, the CC50 at 48 h [8] was 71500 nM and the GI50 (UACC-257) was 1500 nM. The LC50 (concentration killing 50% of tumour cells) at 48 h [2] was 5720 nM, the GI50 (SK-MEL-5) was 1690 nM and the GI50 (DU-145) was 1550 nM. It also gave a CC50 (DU-145) of 47800 nM.

For `Cc1cc2nc3c4cc([N+](=O)[O-])ccc4n(CCN(C)C)c3nc2cc1C` [JBA-185, 2-(2,3-dimethyl-9-nitro-6H-indolo[2,3-b]quinoxalin-6-yl)-N,N-dimethylethanamine], the GI50 (MCF7) was 356 nM, the CC50 (MCF7) was over 100000 nM and the GI50 (U251) was 470 nM. The CC50 at 48 h [3] was over 100000 nM, the CC50 at 48 h [9] was over 100000 nM and the CC50 at 48 h [1] was 7280 nM. For the same molecule, the GI50 (M14) was 499 nM, the CC50 at 48 h [10] was over 100000 nM and the GI50 (HCT-116) was 355 nM. For the same molecule, the CC50 at 48 h [4] was 94200 nM, the GI50 (SN12C) was 479 nM and the CC50 (SN12C) was over 100000 nM. The GI50 (SK-OV-3) was 704 nM, the CC50 (SK-OV-3) was over 100000 nM and the GI50 (MDA-MB-231/ATCC) was 495 nM. The CC50 (MDA-MB-231/ATCC) was over 100000 nM, the CC50 at 48 h [5] was 9020 nM and the GI50 (SK-MEL-2) was 1040 nM. It also gave a GI50 (A498) of 1260 nM, a CC50 (A498) of 5500 nM and a CC50 at 48 h [6] of 26700 nM. For the same molecule, the GI50 (NCI-H460) was 350 nM, the CC50 at 48 h [7] was 4500 nM and the GI50 (MDA-MB-435) was 541 nM. The GI50 (T-47D) was 499 nM, the CC50 (T-47D) was over 100000 nM and the CC50 at 48 h [8] was 34400 nM. For the same molecule, the GI50 (UACC-257) was 732 nM, the LC50 (concentration killing 50% of tumour cells) at 48 h [2] was 4770 nM and the GI50 (SK-MEL-5) was 1040 nM. It also gave a GI50 (DU-145) of 540 nM and a CC50 (DU-145) of over 100000 nM.
